In US3959272A, “Aminoalkyl esters of 2-anilino-nicotinic acids” (Societe Anonyme dite: Hexachime, priority 1972, dated 1976):

Assays:
Escape test = format: in vivo; details: Mus musculus, ip, 0.5 h, read-out: Percentage inhibition (number of attempts to escape); for change in vivo at 8 mg/kg: 8 mg/kg intraperitoneally; for change in vivo at 16 mg/kg: 16 mg/kg intraperitoneally; for change in vivo at 32 mg/kg: 32 mg/kg intraperitoneally; for change in vivo at 64 mg/kg: 64 mg/kg intraperitoneally; for change in vivo at 128 mg/kg: 128 mg/kg intraperitoneally; for change in vivo at 256 mg/kg: 256 mg/kg intraperitoneally
Description: Groups of 8 mice were placed in sub groups of 4 in an enclosure from which they could escape by an inclined plane. The number of attempts to escape during 5 minutes were counted half an hour after intraperitoneal administration of the compound under test.

[1] = Antagonism of convulsions produced by cardiazole; format: in vivo; details: Mus musculus, ip, read-out: Percentage inhibition of tonic convulsions; for inhibition in vivo at 16 mg/kg: 16 mg/kg intraperitoneally; for inhibition in vivo at 32 mg/kg: 32 mg/kg intraperitoneally; for inhibition in vivo at 64 mg/kg: 64 mg/kg intraperitoneally; for inhibition in vivo at 128 mg/kg: 128 mg/kg intraperitoneally
Description: Groups of 6 mice received the compound under test 30 minutes before introperitoneal injection of 160 mg/kg of cardiazole. The action of the compound under test on the tonic convulsion phase was observed.

[2] = Analgesic activity: Randall and Selitto's test (beer yeast paw, pain threshold); format: in vivo, rat
Description: This activity was measured by Siegmund's test in mice and Randall and Selitto's test in the rat. Groups of ten male rats each weight 120 to 140 g received by subcutaneous plantar injection 0.05 ml of a 5% aqueous suspension of beer yeast. 2 Hours after this treatment they received the compound under test orally and 1 hour after administration of this compound the paw which had been injected and the contralateral paw were subjected to increasing pressure. The appearance of the pain threshold was noted.

[3] = Analgesic activity: Siegmund's test (phenylbenzoquinone painful reactions); format: in vivo; details: Mus musculus, po, read-out: percentage inhibition of reactions; for inhibition in vivo at 32 mg/kg: 32 mg/kg orally; for inhibition in vivo at 64 mg/kg: 64 mg/kg orally; for inhibition in vivo at 128 mg/kg: 128 mg/kg orally; for inhibition in vivo at 256 mg/kg: 256 mg/kg orally; for inhibition in vivo at 512 mg/kg: 512 mg/kg orally
Description: This activity was measured by Siegmund's test in mice and Randall and Selitto's test in the rat.
Groups of six mice received the compound under test orally 1 hour before intraperitoneal injection of 0.2 ml of an 0.02% of solution of phenylbenzoquinone. The number of painful reactiors from the fifth to the tenth minute after the injection of phenylbenzoquinone was counted.

[4] = Anti-inflammatory activity: oedema provoked by carragenin in the rat; format: in vivo; details: po, read-out: percentage inhibition of oedema; for inhibition in vivo at 64 mg/kg: 64 mg/kg orally; for inhibition in vivo at 128 mg/kg: 128 mg/kg orally; for inhibition in vivo at 256 mg/kg: 256 mg/kg orally; for inhibition in vivo at 512 mg/kg: 512 mg/kg orally
Description: The method used was as follows.
The anti-inflammatory activity was measured on oedema provoked by carragenin in the rat. Groups of six male rats each weighing 120 to 130 g received the compound under test orally in suspension in "tween 80", half the dose being given 2 hours before and the other half 1/2 hour before the subcutaneous plantar injection of 0.05 ml of a 1 % carragenin solution. The volume of the injected paw was measured by plethysmography at regular intervals. Table 1 below gives the percentage inhibition of the oedema with reference to untreated controls.

[5] = without yeast, 128 mg/kg orally
[6] = without yeast, 256 mg/kg orally

| SMILES | change in vivo at 8 mg/kg (Escape test) [%] | change in vivo at 16 mg/kg (Escape test) [%] | change in vivo at 32 mg/kg (Escape test) [%] | change in vivo at 64 mg/kg (Escape test) [%] | change in vivo at 128 mg/kg (Escape test) [%] | inhibition in vivo at 16 mg/kg [1] [%] | inhibition in vivo at 32 mg/kg [1] [%] | inhibition in vivo at 64 mg/kg [1] [%] | inhibition in vivo at 128 mg/kg [1] [%] | percentage increase of pain threshold ([2]; with yeast, 64 mg/kg orally) [%] | percentage increase of pain threshold ([2]; with yeast, 128 mg/kg orally) [%] | percentage increase of pain threshold ([2]; with yeast, 256 mg/kg orally) [%] | percentage increase of pain threshold ([2]; without yeast, 64 mg/kg orally) [%] | inhibition in vivo at 32 mg/kg [3] [%] | inhibition in vivo at 64 mg/kg [3] [%] | inhibition in vivo at 128 mg/kg [3] [%] | inhibition in vivo at 64 mg/kg [4] [%] | inhibition in vivo at 128 mg/kg [4] [%] | inhibition in vivo at 256 mg/kg [4] [%] | inhibition in vivo at 256 mg/kg [3] [%] | other results |
| --- | --- | --- | --- | --- | --- | --- | --- | --- | --- | --- | --- | --- | --- | --- | --- | --- | --- | --- | --- | --- | --- |
| Cc1cccc(Nc2ncccc2C(=O)OCCN2CCCCC2)c1C [Example 2, β-Piperidino ethyl nixylate] | 6 | -21 | -43 | -80 | -100 | 5 | 22 | 72 | 100 | 5 | 30 | 87 | 0 | 24 | 48 | 69 | 6 | 42 | 70 | – | inhibition in vivo at 4 mg/kg ([1]; 4 mg/kg intraperitoneally): 0%; inhibition in vivo at 8 mg/kg ([1]; 8 mg/kg intraperitoneally): 16%; percentage increase of pain threshold [2, 5]: 52%; percentage increase of pain threshold [2, 6]: 33% |
| Cc1cccc(Nc2ncccc2C(=O)OCCN2CCN(C)CC2)c1C [Example 4, β-(N-methylpiperazino)ethyl nixylate] | 2 | -11 | -37 | -61 | -95 | 0 | 0 | 58 | 91 | 27 | 61 | 16 | 46 | 8 | 33 | 69 | 0 | 50 | 62 | 84 | percentage increase of pain threshold ([2]; with yeast, 16 mg/kg orally): 0%; percentage increase of pain threshold ([2]; with yeast, 32 mg/kg orally): 31%; percentage increase of pain threshold ([2]; without yeast, 16 mg/kg orally): 8%; percentage increase of pain threshold ([2]; without yeast, 32 mg/kg orally): 30%; percentage increase of pain threshold [2, 5]: 38%; percentage increase of pain threshold [2, 6]: 10% |
| Cc1cccc(C)c1Nc1ncccc1C(=O)OCCN1CCOCC1 [Example 6, β-Morpholino ethyl 2-(2,6-dimethylanilino) nicotinate] | – | -13 | -20 | -35 | -74 | – | – | – | – | – | – | – | – | – | 23 | 39 | 0 | 13 | 36 | 69 | change in vivo at 256 mg/kg (Escape test): -100%; inhibition in vivo at 512 mg/kg [3]: 100%; inhibition in vivo at 512 mg/kg [4]: 80% |
| Cc1ccc(Nc2ncccc2C(=O)OCCN2CCOCC2)cc1Cl [Example 7, β-Morpholino ethyl 2-(3-chloro-4-methylanilino) nicotinate] | – | -48 | – | -62 | – | – | – | 0 | 9 | – | – | – | – | 14 | 33 | 55 | – | 2 | 29 | 55 | change in vivo at 256 mg/kg (Escape test): -96%; inhibition in vivo at 256 mg/kg ([1]; 256 mg/kg intraperitoneally): 59%; inhibition in vivo at 512 mg/kg [3]: 77%; inhibition in vivo at 512 mg/kg [4]: 53% |
